“Also recorded” adds a separate entry of the source.
Experiments:
A549 = test: Cytotoxicity analysis (WST-1); assay type: cell-based; details: Homo sapiens, A549, 48 h
Protocol: (§1) HCC1937 (Human breast cancer line), HeLa (Human […]), A549 (Human lung adenocarcinoma), MRC-5 (Human lung fibroblasts), MCF7 (Human breast cancer cells), A549 (human lung carcinoma) were obtained from American Type Culture Collection and maintained as exponentially growing monolayers by culturing according to the supplier’s instructions. MCF7, HeLa, MRC-5, and A549 cell lines were cultured and routinely passaged in DMEM media containing 10% FBS, while HCC1937 cell lines were propagated in RPMI 1640 containing 10% FBS.
(§2) Following the treatment with compounds or vehicle for 48 h, the 10% WST-1 (Roche, Switzerland) in medium was replaced in each 96 well. After 4 h incubation with WST-1 reagent at 37 °C and 5% CO2, the absorbance was measured using a microplate reader at 440 nm (Varioscan, Thermo Fisher Scientific, US). Graph Pad Prism 5 (San Diego, CA, US.) was used to calculate the IC50, which represents the concentration of compounds that is required for 50% inhibition in comparison to the vehicle-treated controls. The experiments were repeated three times independently.

MCF7 = test: Cytotoxicity analysis (WST-1); assay type: cell-based; details: Homo sapiens, MCF7, 48 h
Protocol: as §1, §2

HeLa = test: Cytotoxicity analysis (WST-1); assay type: cell-based; details: Homo sapiens, 48 h
Protocol: as §1, §2

HCC1937 [1] = test: Cytotoxicity analysis (WST-1); assay type: cell-based; details: Homo sapiens, HCC1937, 48 h
Protocol: as §1, §2

MRC-5 = test: Cytotoxicity analysis (WST-1); assay type: cell-based; details: Homo sapiens, MRC5, MRC-5 normal cell line, 48 h
Protocol: as §1, §2

[2] = Nile red staining (particle formation); assay type: physicochemical; details: even at 30 µM
Protocol: AG-08 and AG were dissolved in DMSO as a 1000-fold concentrated stock added into the filtered PBS, which contain 2.5 µM Nile red. After 3 h incubation at room temperature, the fluorescence intensity was measured with a microplate reader (550 nm for excitation and 635 nm for the emission wavelength) (Varioscan, Thermo Fisher Scientific, US).

HCC1937 cells = test: Cytotoxicity of 220 nm filtrates; assay type: cell-based; details: inferred from filtration and Tween-20 tests
Protocol: Figure 1 AG-08 mediated cytotoxicity relies on the supramolecular structures. (A) Structure of AG-08. (B) The scanning transmission electron micrograph of 16 µM AG-08 in PBS. Figure is a representative image of stained sample with uranyl acetate (5683 × magnification; scale bar 600 nm). (C) After 3 h incubation of Nile red solution with AG-08 or AG, fluorescence intensity of Nile red was measured. (D) AG-08, Staurosporine (Sta) or vehicle samples prepared in the cell condition medium was filtrated by 220 nm filter and HCC1937 cells were exposed to the filtrates. After 24 h, the viability of cells was measured and represented as a percentage of that of the vehicle control. The error bars represent mean value ± s.d. (n = 3). *p < 0.05, **p < 0.005, ***p < 0.001. (E) Tween 20 (1:40,000) was added to the fresh medium before addition of 8 μM AG-08 or vehicle. Then cell medium was replaced with this fresh medium. Cell viability was detected after 24 h incubation. […] TEXT PRINTED IN THE PICTURE: (F) no label printed: Diameter: 153.2±4.6; polydispersity index: 0.218
To verify that the activity of AG-08 arises from its supramolecular structures, freshly prepared AG-08 solutions were filtered using 220 nm-filters to remove AG-08 supramolecular particles from medium, and the filtrates were analyzed for their cytotoxicity. […] Next, Tween-20 was utilized as a non-ionic detergent to block particle formation, and AG-08-mediated cell death was inhibited as expected (Fig. 1E). […]

[3] = test system: HeLa, HCC1937, MCF7, A549 and MRC-5; test: cells; assay type: cell-based, Human; details: for IC50: Homo sapiens, range over HeLa, HCC1937, MCF7, A549, MRC-5, read-out: IC50 across the five cell lines
Description: We next aimed to further characterize the relation between the chemical structure of AG-08 and its capacity of supramolecular assembly formation together with its biological activities by preparing further derivatives. In this regard, 18 analogs (Fig. 4) were synthesized from 20(27)-octanor-cycloastragenol (SCG), cycloastragenol (CG), and astragenol (AG) by the methods shown in the method section. The details and characterization of which are shown in Supplementary Information. The cytotoxic activities of the semi-synthetic analogs were evaluated against four human cancer cell lines, namely HeLa, HCC1937, MCF7, and A549 as well as against MRC-5 as a normal cell line.
as §1, §2

HCC1937 [4] = test: LDH (lactate dehydrogenase) releasing assay; assay type: cell-based, Human; details: LDH release and immunoblotting
Protocol: Figure 5 The cytotoxic activity of analogs depends on particle formation like AG-08. […] The level of released LDH was calculated as fold change relative to vehicle. […] After 24 h, cell viability was measured. […] Cell viability after 24 h was measured. The reported values correspond to mean values ± standard deviation (± s.d) of three experiments. ***p < 0.001, ****p < 0.0001.
LDH-Cytotoxicity Colorimetric Assay Kit II (Biovision) was used to detect LDH releasing. Briefly, HCC1937 were seeded on 96 well plate. After treatment with compounds, cells were centrifuged at 600×g for 10 min. 10 µl supernatant were transferred into clean 96 well plate and added into 100 µl LDH Reaction Mix. Following 30 min incubation at room temperature, 10 µl stop solution were added, and absorbance was measured at 450 nm (Varioscan, Thermo Fisher Scientific, US).

[5] = fibrils inducing apoptosis; cited from earlier work

Compound | IC50 (A549) [µM] | IC50 (MCF7) [µM] | IC50 (HeLa) [µM] | IC50 (HCC1937 [1]) [µM] | IC50 (MRC-5) [µM] | Nile red fluorescence intensity (particle formation) [2] | formation of supramolecular assemblies/particles (HCC1937 cells) | cytotoxic activity (structure-activity statement) [3] | IC50 [3] [µM] | mode of cell death (HCC1937 [4]) | concentration at which fibrils form [5] [µM]
CC(C)(O)C1CCC(C)(C2C(O)CC3(C)C4CC(O)C5C(C)(CCC(O)C5(C)C)C4=CCC23C)O1 (centres unmarked) [AG, astragenol, reference compound] | > 30 | > 30 | > 30 | > 30 | > 30 | no fluorescence intensity | – | – | – | – | –
Cc1ccc(S(=O)(=O)OC2CCC34CC35CCC3(C)C(C6(C)CCC(C(C)(C)O)O6)C(O)CC3(C)C5CC(=O)C4C2(C)C)cc1 (centres unmarked) [CG-05] | 1.85 | 3.85 | 6.1 | 2.66 | 2.58 | – | form supramolecular assemblies; also recorded: formed supramolecular particles | higher activity | 1.85 to 6.1 | induced necrotic cell death | –
Cc1ccc(S(=O)(=O)OC2CCC34CC35CCC3(C)C(C6(C)CCC(C(C)(C)O)O6)C(O)CC3(C)C5C=CC4C2(C)C)cc1 (centres unmarked) [CG-03] | 3.65 | 5.5 | 12.9 | 6.13 | 5.29 | – | form supramolecular assemblies; also recorded: formed supramolecular particles | – | 3.65 to 12.9 | induced necrotic cell death | –
C=C(C)[C@@H]1CC[C@]2(C(=O)O)CC[C@]3(C)[C@H](CC[C@@H]4[C@@]5(C)CC[C@H](O)C(C)(C)[C@@H]5CC[C@]43C)[C@@H]12 [betulinic acid] | – | – | – | – | – | – | – | – | – | – | > 50000
CC(=O)Nc1ccc(S(=O)(=O)OC2CCC3(C)C4=CCC5(C)C(C6(C)CCC(C(C)(C)O)O6)C(O)CC5(C)C4C=CC3C2(C)C)cc1 (centres unmarked) [AG-06] | 5.7 | 9.34 | 10.8 | 10 | 19.1 | – | formed supramolecular particles | decrease in activity | 5.7 to 19.1 | induced necrotic cell death | –
Cc1ccc(S(=O)(=O)OC2CCC3(C)C4=CCC5(C)C(C6(C)CCC(C(C)(C)O)O6)C(O)CC5(C)C4CC(=O)C3C2(C)C)cc1 (centres unmarked) [AG-05] | 2.02 | 2.55 | 5.9 | 4.28 | 1.55 | – | form supramolecular assemblies; also recorded: formed supramolecular particles | higher activity | 1.55 to 5.9 | induced necrotic cell death | –
CC(=O)Nc1ccc(S(=O)(=O)OC2CCC34CC35CCC3(C)C(C6(C)CCC(C(C)(C)O)O6)C(O)CC3(C)C5C=CC4C2(C)C)cc1 (centres unmarked) [CG-06] | > 50 | 41.3 | > 50 | 38.1 | > 50 | – | form supramolecular assemblies | complete activity loss | – | induced necrotic cell death | –
